Data on ten compounds can be found in patent US20260083865A1, “PROSTATE SPECIFIC MEMBRANE ANTIGEN (PSMA) LIGANDS AND USE THEREOF” (priority 2022, published 2026).

Experiment [1] concerns the target T1, Fc-fusion protein of human PSMA (hPSMA-Fc) (Homo sapiens, UniProt Q04609).
T1 construct: purchased Acro Biosystems PSA-H5264
As to the kind of experiment: Surface plasmon resonance assay (Biacore T200, single cycle kinetic). Format: binding. Conditions: SPR, hPSMA-Fc, single cycle kinetic, 25° C.; category; read-out: pKD CAT (converted). In outline: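 KD, expressed as pKD, came from 1:1 Langmuir fits of reference- and buffer-blank-subtracted SPR data. The runs were single-cycle kinetics at 25° C in HBST/0.1% DMSO over human PSMA-Fc, captured to ~1000 RU on a peptide-coated CM5 surface and regenerated with 10 mM glycine pH 1.5.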
(In SPR one partner is held on a chip, and binding of the other changes the refractive index at the surface.)

Experiment [2] addresses T2, PSMA-expressing C4-2 cells (Homo sapiens, UniProt Q04609).
T2 construct: PSMA-expressing C4-2 cells (ATCC, Cat. No. CRL-3314) were cultured in RPMI-1640; host or cells: C4-2 cells
The experiment can be described thus: FACS binding assay (competition with 50 nM PSM-0183). Conditions: FACS binding, C4-2 cells, competition with 50 nM PSM-0183; category; read-out: pIC50 [C4-2] CAT (converted). In outline:
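Competition format: fluorescent tracer PSM-0183 (50 nM) displaced from PSMA on C4-2 cells by a test compound titration over 1 h at 4 °C. Bound tracer was quantified as flow-cytometric AF488 median fluorescence after washing. Four-parameter logistic fits of MFI data gave IC50 and pIC50.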
(In general: Flow cytometry measures light scatter and fluorescence of single cells or particles in a stream.)

Numbered stars: 1 amine (or outer) side, 2 acyl side, 3 side chain; on linkers, the order of the positions; unused ones are H or OH. Bridge positions count the residues as written; N and C are the ends. Square brackets hold non-standard residues; d marks the D form. Peptide text beside a SMILES is read from it. * marks the point of attachment. X3 = O=C(O)CN1CCN(CC(=O)O)CCN(CC(=O)NCCCOCCOCCOCCCN*)CCN(CC(=O)O)CC1; DOTA = O=C(O)CN1CCN(CC(=O)O)CCN(CC(=O)*)CCN(CC(=O)O)CC1; Arg(NO2) = N=C(NCCC[C@H](N)C(=O)O)N[N+](=O)[O-]; Phe(4-Cl) = N[C@@H](Cc1ccc(Cl)cc1)C(=O)O; Arg(Me) = CNC(=N)NCCC[C@H](N)C(=O)O; X4 = O=C(CN1CCC(N[*:1])CC1)[*:2]; 2Pal = N[C@@H](Cc1ccccn1)C(=O)O; 3Pal = N[C@@H](Cc1cccnc1)C(=O)O; X1 = O=C(CC1CCN([*:1])CC1)[*:2]; Cit = NC(=O)NCCC[C@H](N)C(=O)O; Lys(Me) = CNCCCC[C@H](N)C(=O)O; d(αMeS) = C[C@@](N)(CO)C(=O)O; Suc = O=C(CCC(=O)[*:2])[*:1]; Tle = CC(C)(C)[C@H](N)C(=O)O; Pyridin(2-yl) = c1ccc(*)nc1; Orn = NCCC[C@H](N)C(=O)O; Aib = CC(C)(N)C(=O)O; CO = O=C([*:1])[*:2]; NHBu = CCCCN*

T2 sequence (Q04609 whole entry): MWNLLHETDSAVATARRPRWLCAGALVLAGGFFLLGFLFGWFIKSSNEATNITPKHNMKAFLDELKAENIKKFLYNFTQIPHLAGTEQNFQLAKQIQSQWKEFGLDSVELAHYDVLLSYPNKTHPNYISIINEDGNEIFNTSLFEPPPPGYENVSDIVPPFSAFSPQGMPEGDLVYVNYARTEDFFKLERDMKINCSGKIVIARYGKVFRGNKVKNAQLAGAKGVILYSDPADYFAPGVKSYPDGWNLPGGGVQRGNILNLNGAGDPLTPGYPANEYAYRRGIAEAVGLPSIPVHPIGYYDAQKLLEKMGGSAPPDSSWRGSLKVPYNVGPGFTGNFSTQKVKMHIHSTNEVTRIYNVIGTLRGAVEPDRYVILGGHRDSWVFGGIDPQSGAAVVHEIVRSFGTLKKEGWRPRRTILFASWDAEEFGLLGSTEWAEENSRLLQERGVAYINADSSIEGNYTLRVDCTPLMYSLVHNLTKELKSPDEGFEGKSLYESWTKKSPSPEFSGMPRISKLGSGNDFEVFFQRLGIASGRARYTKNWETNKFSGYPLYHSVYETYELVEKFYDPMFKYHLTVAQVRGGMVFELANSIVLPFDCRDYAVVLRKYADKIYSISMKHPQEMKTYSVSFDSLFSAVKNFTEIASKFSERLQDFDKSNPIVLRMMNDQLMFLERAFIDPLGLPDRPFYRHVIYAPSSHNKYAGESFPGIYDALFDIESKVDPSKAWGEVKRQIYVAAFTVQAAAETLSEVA
T1 sequence (Q04609 44-750 limits assumed): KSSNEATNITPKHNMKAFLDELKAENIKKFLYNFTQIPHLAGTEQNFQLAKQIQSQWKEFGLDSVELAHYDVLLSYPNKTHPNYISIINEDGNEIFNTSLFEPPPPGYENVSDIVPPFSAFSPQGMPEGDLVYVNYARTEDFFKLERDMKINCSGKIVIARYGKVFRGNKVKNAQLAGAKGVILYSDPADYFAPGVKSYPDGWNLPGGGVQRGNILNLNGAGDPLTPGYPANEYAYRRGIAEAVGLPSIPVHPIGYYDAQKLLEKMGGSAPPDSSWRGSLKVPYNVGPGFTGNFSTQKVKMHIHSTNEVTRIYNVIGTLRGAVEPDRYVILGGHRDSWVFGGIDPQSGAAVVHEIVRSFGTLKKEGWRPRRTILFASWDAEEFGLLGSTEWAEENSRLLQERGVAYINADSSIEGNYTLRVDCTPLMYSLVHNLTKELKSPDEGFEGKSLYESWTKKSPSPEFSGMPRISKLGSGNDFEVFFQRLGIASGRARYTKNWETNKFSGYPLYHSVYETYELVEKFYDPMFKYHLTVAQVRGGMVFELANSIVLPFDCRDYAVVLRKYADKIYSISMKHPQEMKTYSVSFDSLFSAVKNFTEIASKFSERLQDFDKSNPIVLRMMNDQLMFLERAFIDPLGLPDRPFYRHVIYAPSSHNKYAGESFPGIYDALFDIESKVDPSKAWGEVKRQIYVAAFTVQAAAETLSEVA

`CNCCCC[C@@H]1NC(=O)[C@@H](NC(=O)[C@H](Cc2ccc(Cl)cc2)NC(=O)C(C)(C)NC(=O)[C@@H](NC(=O)CC2CCN(C(=O)CN3CCN(CC(=O)O)CCN(CC(=O)O)CCN(CC(=O)O)CC3)CC2)[C@@H](C)O)CSSC[C@@H](C(=O)N[C@H](C(=O)N[C@H](C(N)=O)[C@@H](C)O)C(C)(C)C)NC(=O)[C@H](CC(N)=O)NC(=O)C(C)(C)NC(=O)[C@H](CCCNC(=N)N[N+](=O)[O-])NC1=O` [PSM-0254, DOTA-Cmp-Thr-Aib-Pcf-[Cys-Lys(Me)-Eew-Aib-Asn-Cys]-Tle-Thr-NH2] ({DOTA}-[X1]T[Aib][Phe(4-Cl)]C[Lys(Me)][Arg(NO2)][Aib]NC[Tle]T-NH2; disulfide 5-10): the Kd in experiment [1] is less than 0.0126 µM. In experiment [2], the IC50 is less than 0.2 µM.
The corresponding values for `C[C@@H](O)[C@H](NC(=O)[C@@H](NC(=O)[C@@H]1CSSC[C@H](NC(=O)[C@H](Cc2cccnc2)NC(=O)C(C)(C)NC(=O)[C@@H](NC(=O)CC2CCN(C(=O)CN3CCN(CC(=O)O)CCN(CC(=O)O)CCN(CC(=O)O)CC3)CC2)[C@@H](C)O)C(=O)N[C@@H](CCCCN)C(=O)N[C@@H](CCCNC(N)=O)C(=O)NC(C)(C)C(=O)N[C@@H](CC(N)=O)C(=O)N1)C(C)(C)C)C(N)=O` [PSM-0255, DOTA-Cmp-Thr-Aib-Mpa-[Cys-Lys-Cit-Aib-Asn-Cys]-Tle-Thr-NH2] ({DOTA}-[X1]T[Aib][3Pal]CK[Cit][Aib]NC[Tle]T-NH2; disulfide 5-10) are more than 0.501 µM and 1.26 to 3.16 µM.
Consider `C[C@@H](O)[C@H](NC(=O)[C@@H](NC(=O)[C@@H]1CSSC[C@H](NC(=O)[C@H](Cc2ccc(Cl)cc2)NC(=O)[C@@](C)(CO)NC(=O)[C@@H](NC(=O)CC2CCN(C(=O)CN3CCN(CC(=O)O)CCN(CC(=O)O)CCN(CC(=O)O)CC3)CC2)[C@@H](C)O)C(=O)N[C@@H](CCCCN)C(=O)N[C@@H](CCCNC(=N)N)C(=O)NC(C)(C)C(=O)N[C@@H](CC(N)=O)C(=O)N1)C(C)(C)C)C(N)=O` [PSM-0256, DOTA-Cmp-Thr-ams-Pcf-[Cys-Lys-Arg-Aib-Asn-Cys]-Tle-Thr-NH2] ({DOTA}-[X1]T[d(αMeS)][Phe(4-Cl)]CKR[Aib]NC[Tle]T-NH2; disulfide 5-10), for which, in experiment [1], the Kd was less than 0.0126 µM. For the same compound, the IC50 in experiment [2] was less than 0.2 µM.
The corresponding values for `CNCCCC[C@@H]1NC(=O)[C@@H](NC(=O)[C@H](Cc2ccccn2)NC(=O)C(C)(C)NC(=O)[C@@H](NC(=O)CC2CCN(C(=O)CN3CCN(CC(=O)O)CCN(CC(=O)O)CCN(CC(=O)O)CC3)CC2)[C@@H](C)O)CSSC[C@@H](C(=O)N[C@H](C(=O)N[C@H](C(N)=O)[C@@H](C)O)C(C)(C)C)NC(=O)[C@H](CC(N)=O)NC(=O)C(C)(C)NC(=O)[C@H](CCCNC(=N)NC)NC1=O` [PSM-0257, DOTA-Cmp-Thr-Aib-Opa-[Cys-Lys(Me)-Arg(Me)-Aib-Asn-Cys]-Tle-Thr-NH2] ({DOTA}-[X1]T[Aib][2Pal]C[Lys(Me)][Arg(Me)][Aib]NC[Tle]T-NH2; disulfide 5-10) are 0.0126 to 0.126 µM and 0.2 to 1.26 µM.
In the same order, the values of `CCCCNC(=O)N[C@H](C(=O)NC(C)(C)C(=O)N[C@@H](Cc1ccccc1)C(=O)N[C@H]1CSSC[C@@H](C(=O)N[C@H](C(=O)N[C@H](C(=O)N2CCC(CC(=O)N[C@H](CCCCNC(=O)CN3CCN(CC(=O)O)CCN(CC(=O)O)CCN(CC(=O)O)CC3)C(N)=O)CC2)[C@@H](C)O)C(C)(C)C)NC(=O)[C@H](CC(N)=O)NC(=O)C(C)(C)NC(=O)[C@H](CCCNc2ccccn2)NC(=O)[C@H](CCCCN)NC1=O)[C@@H](C)O` [PSM-0258, nBuCAyl-Thr-Aib-Phe-[Cys-Lys-Opy-Aib-Asn-Cys]-Tle-Thr-Cmp-lys(DOTA)-NH] ({NHBu-CO}-T[Aib]FCK[Orn](Pyridin(2-yl))[Aib]NC[Tle]T[X1][dK](DOTA)-NH2; disulfide 4-9) are 0.126 to 0.501 µM and 0.2 to 1.26 µM.
Consider `C[C@@H](O)[C@H](NC(=O)[C@@H](NC(=O)[C@@H]1CSSC[C@H](NC(=O)[C@H](Cc2ccccc2)NC(=O)C(C)(C)NC(=O)[C@@H](NC(=O)CCC(=O)NCCCOCCOCCOCCCNC(=O)CN2CCN(CC(=O)O)CCN(CC(=O)O)CCN(CC(=O)O)CC2)[C@@H](C)O)C(=O)N[C@@H](CCCCN)C(=O)N[C@@H](CCCNC(=N)N)C(=O)NC(C)(C)C(=O)N[C@@H](CC(N)=O)C(=O)N1)C(C)(C)C)C(N)=O` [PSM-0259, DOTA-Ttds-Thr-Aib-Phe-[Cys-Lys-Arg-Aib-Asn-Cys]-Tle-Thr-NH2] ({X3-Suc}-T[Aib]FCKR[Aib]NC[Tle]T-NH2; disulfide 4-9), for which the Kd in experiment [1] is less than 0.0126 µM. Further, the IC50 in experiment [2] is less than 0.2 µM.
The corresponding values for `C[C@@H](O)[C@H](NC(=O)[C@@H](NC(=O)[C@@H]1CSSC[C@H](NC(=O)[C@H](Cc2ccc(Cl)cc2)NC(=O)C(C)(C)NC(=O)[C@@H](NC(=O)CC2CCN(C(=O)CN3CCN(CC(=O)O)CCN(CC(=O)O)CCN(CC(=O)O)CC3)CC2)[C@@H](C)O)C(=O)N[C@@H](CCCCN)C(=O)N[C@@H](CCCNC(=N)N)C(=O)N[C@H](CCC(=O)O)C(=O)N[C@@H](CC(N)=O)C(=O)N1)C(C)(C)C)C(N)=O` [PSM-0260, DOTA-Cmp-Thr-Aib-Pcf-[Cys-Lys-Arg-glu-Asn-Cys]-Tle-Thr-NH2] ({DOTA}-[X1]T[Aib][Phe(4-Cl)]CKR[dE]NC[Tle]T-NH2; disulfide 5-10) are less than 0.0126 µM and less than 0.2 µM.
The corresponding values for `C[C@@H](O)[C@H](NC(=O)[C@@H](NC(=O)[C@@H]1CSSC[C@H](NC(=O)[C@H](Cc2ccccc2)NC(=O)C(C)(C)NC(=O)CN2CCC(NC(=O)CN3CCN(CC(=O)O)CCN(CC(=O)O)CCN(CC(=O)O)CC3)CC2)C(=O)N[C@@H](CCCCN)C(=O)N[C@@H](CCCNC(=N)N)C(=O)NC(C)(C)C(=O)N[C@@H](CC(N)=O)C(=O)N1)C(C)(C)C)C(N)=O` [PSM-0261, DOTA-APAc-Aib-Phe-[Cys-Lys-Arg-Aib-Asn-Cys]-Tle-Thr-NH2] ({DOTA}-[X4][Aib]FCKR[Aib]NC[Tle]T-NH2; disulfide 4-9) are 0.0126 to 0.126 µM and less than 0.2 µM.
In the same order, the values of `CC(=O)N[C@H](C(=O)NC(C)(C)C(=O)N[C@@H](Cc1ccccc1)C(=O)N[C@H]1CSSC[C@@H](C(=O)N[C@H](C(=O)N[C@@H](CCC(=O)O)C(N)=O)C(C)(C)C)NC(=O)[C@H](CC(N)=O)NC(=O)C(C)(C)NC(=O)[C@H](CCCNC(=N)N)NC(=O)[C@H](CCCCN)NC1=O)[C@@H](C)O` [PSM-0262, Ac-Thr-Aib-Phe-[Cys-Lys-Arg-Aib-Asn-Cys]-Tle-Glu-NH2] (Ac-T[Aib]FCKR[Aib]NC[Tle]E-NH2; disulfide 4-9) are less than 0.0126 µM and less than 0.2 µM.
Consider `C[C@@H](O)[C@H](NC(=O)[C@@H](NC(=O)[C@@H]1CSSC[C@H](NC(=O)[C@H](Cc2ccc(Cl)cc2)NC(=O)C(C)(C)NC(=O)CN2CCC(NC(=O)CN3CCN(CC(=O)O)CCN(CC(=O)O)CCN(CC(=O)O)CC3)CC2)C(=O)N[C@@H](CCCCN)C(=O)N[C@@H](CCCNC(=N)N)C(=O)NC(C)(C)C(=O)N[C@@H](CC(N)=O)C(=O)N1)C(C)(C)C)C(N)=O` [PSM-0263] ({DOTA}-[X4][Aib][Phe(4-Cl)]CKR[Aib]NC[Tle]T-NH2; disulfide 4-9), for which, in experiment [1], the Kd is less than 0.0126 µM. Further, the IC50 in experiment [2] is less than 0.2 µM.
